Assay results taken from patent US7422793B2, “Non-toxic corrosion-protection rinses and seals based on rare earth elements” (University of Dayton, priority 2002, dated 2008).

Assay: not given
Settings: oxidizer sources; at or near 25° C. and at or near pH 7; cited from earlier work

| Molecule | Solubility in Water |
| --- | --- |
| OO [Hydrogen peroxide] | 60 wt. % |

Same assay, conditions: pH 7; cited from earlier work

| Molecule | Solubility in Water |
| --- | --- |
| [O-][Cl+3]([O-])([O-])O [Perchloric acid] | 75 wt. % |
| [Na+].[Na+].[O-][O-] [Sodium peroxide] | 1 × 10^0 mole/L |
| [Cs+].[Cs+].[F][Zr-2]([F])([F])([F])([F])[F] [Cesium hexafluorozirconate] | 0.112 mol/L |
| Calcium vanadate | 0.5 mol/L |
| Strontium nitrite | 3.8 × 10^0 mole/L |
| Rubidium hexafluorostannate | 0.062 mol/L |
| [Li+].[Li+].[O-][O-] [Lithium peroxide] | 1 × 10^0 mole/L |
| F[Si-2](F)(F)(F)(F)F.[Ag+].[Ag+] [Silver (I) hexafluorosilicate] | 1 × 10^0 mole/L |
| [Ca+2].[O-][Cl+2]([O-])[O-].[O-][Cl+2]([O-])[O-] [Calcium chlorate] | 7.4 × 10^0 mole/L |
| [Ce+4].[O-][Cl+3]([O-])([O-])[O-].[O-][Cl+3]([O-])([O-])[O-].[O-][Cl+3]([O-])([O-])[O-].[O-][Cl+3]([O-])([O-])[O-] [Cerium (IV) perchlorate] | 1.0 × 10^0 mole/L |
| Rubidium tungstate | 50 mol/L |
| Iron (III) hexafluorosilicate | “soluble” |
| [F][Sb-]([F])([F])([F])([F])[F].[K+] [Potassium fluoroantimonate] | 3.7 × 10^0 mole/L |
| [O-][Cl+2]([O-])[O-].[O-][Cl+2]([O-])[O-].[Zn+2] [Zinc chlorate] | 8.6 × 10^0 mole/L |
| [Cs+].[Cs+].[O]=[Mo](=[O])([O-])[O-] [Cesium molybdate] | 4.8 × 10^0 mole/L |
| Potassium vanadate | 1 × 10^0 mole/L |
| Ammonium selenate | 6.0 × 10^0 mole/L |
| Rubidium germanate | 0.5 mol/L |
| Rubidium heptafluorotantalate | 0.1 mol/L |
| Rubidium hexafluorohafnate | 0.19 mol/L |
| [Cs+].[Cs+].[F][Sn-2]([F])([F])([F])([F])[F] [Cesium hexafluorostannate] | 0.079 mol/L |
| [Mg+2].[O-][Cl+2]([O-])[O-].[O-][Cl+2]([O-])[O-] [Magnesium chlorate] | 4.3 × 10^0 mole/L |
| [F][Hf-2]([F])([F])([F])([F])[F].[Li+].[Li+] [Lithium hexafluorohafnate] | 0.1 mol/L |
| F[B-](F)(F)F.[K+] [Potassium tetrafluoroborate] | 0.035 mol/L |
| [F][Ti-2]([F])([F])([F])([F])[F].[K+].[K+] [Potassium hexafluorotitanate] | 0.06 mol/L |
| Lithium bromate | 4.85 × 10^0 mole/L |

| Molecule | Solubility in Water |
| --- | --- |
| [Cs+].[Cs+].[F][Ti-2]([F])([F])([F])([F])[F] [Cesium hexafluorotitanate] | 0.055 mol/L |
| [F][Nb-2]([F])([F])([F])([F])([F])[F].[K+].[K+] [Potassium heptafluoroniobate] | 0.26 mol/L |
| O=N[O-].O=N[O-].[Mg+2] [Magnesium nitrite] | 1 × 10^0 mole/L |
| Tin (IV) fluoride | 1 × 10^0 mole/L |
| [F][Nb-2]([F])([F])([F])([F])([F])[F].[Li+].[Li+] [Lithium heptafluoroniobate] | 0.5 mol/L |
| [Na+].[Na+].[O]=[Mo](=[O])([O-])[O-] [Sodium molybdate] | 215 mol/L |
| [O-][Cl+3]([O-])([O-])[O-].[O-][Cl+3]([O-])([O-])[O-].[Sr+2] [Strontium perchlorate] | 13 mol/L |
| Potassium germanate | 1 × 10^0 mole/L |
| O=[Te](=O)([O-])[O-].[Cs+].[Cs+] [Cesium tellurate] | 0.01 mol/L |
| [Cs+].[O-][Cl+2]([O-])[O-] [Cesium chlorate] | 0.29 mol/L |
| O=[Se](=O)(O)O [Selenic acid] | 60 wt. % |
| F[Si-2](F)(F)(F)(F)F.[NH4+].[NH4+] [Ammonium hexafluorosilicate] | 1.04 × 10^0 mole/L |
| O=N[O-].[K+] [Potassium nitrite] | 35 mol/L |
| [K+].[O]=[Al][O-] [Potassium aluminate] | 1 × 10^0 mole/L |
| Rubidium periodate | 0.024 mol/L |
| O[Te](O)(O)(O)(O)O [Telluric acid] | 0.5 mol/L |
| [Ca+2].[O-][Cl+3]([O-])([O-])[O-].[O-][Cl+3]([O-])([O-])[O-] [Calcium perchlorate] | 7.9 × 10^0 mole/L |
| [Cs+].[O-][Cl+3]([O-])([O-])[O-] [Cesium perchlorate] | 0.086 mol/L |
| Rubidium heptafluoroniobate | 0.1 mol/L |
| Rubidium tellurate | 0.01 mol/L |
| O=[Te](=O)([O-])[O-].[K+].[K+] [Potassium tellurate] | 0.01 mol/L |
| [K+].[O-2].[O-2].[O-2].[Ta+5] [Potassium tantalate] | 0.005 mol/L |
| [Mg+2].[O-][Cl+3]([O-])([O-])[O-].[O-][Cl+3]([O-])([O-])[O-] [Magnesium perchlorate] | 4.4 × 10^0 mole/L |
| F[Si-2](F)(F)(F)(F)F.[Ca+2] [Calcium hexafluorosilicate] | 0.5 mol/L |

Assay: not given
Settings: in acid solution; couple to the trivalent ion; cited from earlier work

| Molecule | oxidation-reduction potential |
| --- | --- |
| hexavalent chromium [Cr^+6, reference compound] | +1.36 V |
| [Ce+4] [Ce^+4, tetravalent cerium ion] | +1.72 V |

Same assay, conditions: in acidic solution; Nugent et al. 1971; cited from earlier work

| Molecule | calculated redox potential |
| --- | --- |
| [Tb+4] [Tb^+4, tetravalent terbium ion] | +3.2 V |
| [Pr+4] [Pr^+4, tetravalent praseodymium ion] | +3.2 V |

Assay: pH change on placing the compound into deionized water of pH 7
Type: physicochemical
Settings: simple laboratory experiment
From the text: A simple laboratory experiment confirms this effect. […] However, if icosahedral Ce(NO3)6^2− (note that this ion contains no hydroxide) is placed into deionized water of pH 7, a quite remarkable pH drop to −1 can be observed. The released tetravalent cerium ions will scavenge virtually all of the available OH^− ions in solution (possibly even degrading H2O itself to obtain […]), resulting in this dramatic pH drop.

| Molecule | pH after placing into deionized water of pH 7 |
| --- | --- |
| [Ce+4].[OH-].[OH-].[OH-].[OH-] [Ce(OH)4, ceric hydroxide, reference compound] | only a minor pH change |
| O=[N+]([O-])O.O=[N+]([O-])O.O=[N+]([O-])O.O=[N+]([O-])O.O=[N+]([O-])O.O=[N+]([O-])O.[Ce] [Ce(NO3)6^2−, hexanitratocerate (IV)] | −1 |
